Values belong to the compound of their own block, whether it stands above or below them. The source made the active and inactive calls.
Key:
Genome polyprotein = Genome polyprotein (Hepatitis C virus, UniProt Q2Q167); test: disruption of hepatitis C core self-association – biochemical, TR-FRET, dose response (AID 2159); design: species or system Hepacivirus hominis;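 further: blocks dimerization of HCV core protein measured by TR-FRET between tagged core106 pairs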
[1] = Luminescence Cell-Based Dose Confirmation HTS to Identify Inhibitors of Platelet Dense Granule Release. [Related pubchem assays: 1663 (Primary HTS), 1678 (Summary of Project)]; format: functional
[2] = Fluorescence Cell-Based Dose Response to Identify Inhibitors of Thrombin Receptor-Activating Peptide SFLLRN-Mediated P-Selectin Induction on Platelets. [Related pubchem assays: 1663 (Primary HTS), 1889 (retest at dose ), 1891 (counterscreen), 1678 (Project Summary)]; format: functional
[3] = target: Luciferin 4-monooxygenase (Photinus pyralis, UniProt P08659); test: inhibition of purified Photinus pyralis luciferase – biochemical, luminescence, dose response (AID 1891)
Sequence of Luciferin 4-monooxygenase (P08659 whole entry): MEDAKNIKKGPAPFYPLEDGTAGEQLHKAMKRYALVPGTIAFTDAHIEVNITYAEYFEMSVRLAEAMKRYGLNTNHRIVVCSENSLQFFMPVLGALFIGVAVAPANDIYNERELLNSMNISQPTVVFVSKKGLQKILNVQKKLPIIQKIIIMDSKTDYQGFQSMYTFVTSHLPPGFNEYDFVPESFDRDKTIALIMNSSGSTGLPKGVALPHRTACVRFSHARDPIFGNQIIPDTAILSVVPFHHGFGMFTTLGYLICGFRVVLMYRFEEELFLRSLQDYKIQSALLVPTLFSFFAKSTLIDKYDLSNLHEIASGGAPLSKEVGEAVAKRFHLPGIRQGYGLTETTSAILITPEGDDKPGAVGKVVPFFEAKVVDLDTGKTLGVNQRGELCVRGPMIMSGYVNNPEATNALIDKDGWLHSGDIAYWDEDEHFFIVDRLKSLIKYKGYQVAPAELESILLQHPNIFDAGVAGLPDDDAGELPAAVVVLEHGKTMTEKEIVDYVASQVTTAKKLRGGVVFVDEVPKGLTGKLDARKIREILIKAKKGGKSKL

[4] = reduced cellular PGC1a acetyl-lysine signal – cell-based, cherry-picked samples, dose response (AID 720514); format: functional;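 further: potency may reflect raised or lowered acetylation signal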
[5] = HEK-293T viability loss, compound-treated – cell-based, uHTS hits, cytotoxicity control for B/T-cell NF-kB inhibitor project, dose response (AID 489019); format: functional;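 further: IC50 reflects cytotoxicity as loss of cell viability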
[6] = viability loss in HEK293 cells – cell-based, plate reader, cherry-picked samples, cytotoxicity control, dose response (AID 743446); format: functional
[7] = blockers of bursicon-stimulated LGR2 cAMP reporter – cell-based, HEK293, CRE-luciferase reporter, cherry pick, set 2, dose response (AID 743343); format: functional;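 further: transfected cells were stimulated with diluted bursicon conditioned medium after compound addition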
[8] = loss of viability in HepG2 cells – cell-based, CellTiter-Glo, cherry-picked, cytotoxicity control for Shn3 inhibitor project, dose response (AID 624134); format: functional
[9] = toxicity toward HepG2 liver cells – cell-based, plate reader, cherry-pick, antagonist series, cytotoxicity control, dose response (AID 743416); format: functional
INS1 = test: INS-1E survival protection against cytokine death – cell-based, luminescence, retest, dose response (AID 449756); format: functional; conditions: Rattus norvegicus;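 further: cell death triggered by IL-1 beta plus TNF-alpha plus IFN-gamma mixture; protective hits raise ATP signal compared with cytokine alone wells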
[10] = blockade of melanocortin 4 receptor signaling – cell-based, plate reader, cherry pick, counter-screen for LGR2 antagonist project, dose response (AID 743444); format: functional;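 further: transfected HEK 293 cells stimulated with alpha-MSH peptide; potency of inhibitors of the alpha-MSH evoked signal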
[11] = A549 cell cytotoxicity, dose response, cytotoxicity control, plate reader, cherry-pick, antagonist series (AID 743412); format: functional, cell-based
[12] = non-specific 3'UTR reporter inhibition in Clone20-Shn3RL – cell-based, Renilla luciferase, cherry-picked, counter-screen for Shn3 inhibitor project, dose response (AID 624133); format: functional
[13] = reduction of Shn3 3'UTR-driven luciferase in osteoblasts – cell-based, Clone20 osteoblasts, firefly luciferase, cherry-picked, dose response (AID 624132); format: functional;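 further: firefly luciferase luminescence from reporter carrying the Shn3 3'UTR in osteoblasts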
Jurkat = test: blockers of NF-kB activation in T cells – Jurkat, luciferase reporter, luminescence, B- and T-cell, dose response (AID 489004); format: functional, cell-based; conditions: Homo sapiens;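 further: NF-kB luciferase reporter Jurkat cells stimulated with PMA plus ionomycin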
X-box-binding protein 1 = target: T1, X-box-binding protein 1 (Homo sapiens, UniProt P17861); format: functional, Cricetulus griseus;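 further: confirmatory dose-response counter-screen serving a CHOP assay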
T1 sequence (P17861 whole entry): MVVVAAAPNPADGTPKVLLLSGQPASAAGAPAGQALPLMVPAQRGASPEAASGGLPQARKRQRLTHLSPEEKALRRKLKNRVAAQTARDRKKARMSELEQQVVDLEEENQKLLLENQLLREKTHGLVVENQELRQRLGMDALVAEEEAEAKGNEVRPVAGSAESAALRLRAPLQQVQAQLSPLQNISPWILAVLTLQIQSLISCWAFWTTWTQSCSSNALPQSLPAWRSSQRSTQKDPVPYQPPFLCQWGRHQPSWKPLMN

[14] = IC50 of Artemis nuclease activity blockers – biochemical, fluorescence intensity, dose response (AID 720701); format: functional;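 further: Artemis endonuclease enzyme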
[15] = viability of PTEN-deleted HCT116 cells – cell-based, HCT116 PTEN knockout, dose response (AID 1047); format: functional;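 further: HCT116 colon tumor cells with PTEN knocked out; cells exposed to compound for 60 hours before readout; potency for loss of cell viability measured by luminescence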
[16] = viability of HCT116 lacking mutant beta-catenin – cell-based, human colon tumor, dose response (AID 1045); format: functional;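 further: HCT116 colon tumor cells with beta catenin knocked out; cells exposed to compound for 60 hours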
[17] = target: G-protein coupled receptor 183 (Homo sapiens, UniProt P32249); test: SAR confirmation of small molecule antagonists of the EBI2 receptor via a luminescent beta-arrestin assa.; format: functional
Sequence of G-protein coupled receptor 183 (P32249 whole entry): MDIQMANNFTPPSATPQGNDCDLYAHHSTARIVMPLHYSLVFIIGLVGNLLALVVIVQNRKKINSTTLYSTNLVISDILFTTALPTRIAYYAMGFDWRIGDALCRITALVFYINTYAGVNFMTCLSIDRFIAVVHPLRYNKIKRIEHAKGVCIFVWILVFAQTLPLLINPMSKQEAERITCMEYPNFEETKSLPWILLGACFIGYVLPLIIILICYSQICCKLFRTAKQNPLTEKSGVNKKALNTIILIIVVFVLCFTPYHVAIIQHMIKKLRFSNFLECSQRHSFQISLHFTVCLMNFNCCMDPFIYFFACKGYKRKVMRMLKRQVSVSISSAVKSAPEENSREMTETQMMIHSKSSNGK

[18] = target: T2, Tyrosine-protein phosphatase non-receptor type 7 (Homo sapiens, UniProt P35236); test: HePTP tyrosine phosphatase activity blockers – biochemical, absorbance, leukemia target, primary screen (AID 521); format: functional
T2 sequence (P35236 whole entry): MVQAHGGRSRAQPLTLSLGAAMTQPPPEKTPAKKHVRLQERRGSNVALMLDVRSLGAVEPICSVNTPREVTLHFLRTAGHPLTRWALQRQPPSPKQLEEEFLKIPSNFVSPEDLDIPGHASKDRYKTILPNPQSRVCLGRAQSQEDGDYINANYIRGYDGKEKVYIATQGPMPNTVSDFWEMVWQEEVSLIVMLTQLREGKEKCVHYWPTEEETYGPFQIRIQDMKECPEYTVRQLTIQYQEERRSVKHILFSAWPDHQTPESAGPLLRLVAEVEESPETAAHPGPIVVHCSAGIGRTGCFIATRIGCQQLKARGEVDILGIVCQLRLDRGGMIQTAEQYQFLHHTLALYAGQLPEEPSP

[19] = antileishmanial activity on axenic amastigotes – plate reader, dry powder, dose response (AID 651892); format: functional, cell-based
[20] = African trypanosome bloodstream form growth inhibition – STIB900 strain, plate reader, cherry pick, dose response (AID 651893); format: functional, cell-based, Trypanosoma brucei rhodesiense; conditions: Trypanosoma brucei
[21] = anti-trypanosomal activity in BESM host cells – imaging, CA-I/72 strain, bovine embryo skeletal muscle, dry powder, dose response (AID 651885); format: functional, cell-based
[22] = intracellular Chagas parasite inhibition in myoblasts – Tulahuen strain, L-6 host cells, dry powder, dose response (AID 651890); format: functional, cell-based
[23] = African trypanosome bloodstream form growth inhibition – STIB900 strain, plate reader, dry powder, dose response (AID 651894); format: functional, cell-based
[24] = antileishmanial activity on axenic amastigotes – plate reader, cherry pick, dose response (AID 651891); format: functional, cell-based; conditions: Leishmania donovani
[25] = L6 myocyte viability loss – cell-based, plate reader, cherry-pick, cytotoxicity control, dose response (AID 651896); format: functional
[26] = antimalarial activity against erythrocytic parasites – NF54 strain, plate reader, dry powder, dose response (AID 651889); format: functional, cell-based
[27] = Trypanosoma cruzi replication inhibitors in host cells – cell-based, plate reader, dry powder samples, dose response (AID 651845); format: functional
[28] = intracellular Trypanosoma cruzi inhibitors in host cells – cell-based, plate reader, cherry-pick samples, set 3, dose response (AID 651818); format: functional;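 further: compounds incubated with infected cells for about four days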
[29] = T. cruzi growth inhibition in host cells, dose response, cell-based, plate reader, dry powder, set 2 (AID 652275); format: functional
[30] = host muscle cell viability loss – plate reader, dry powder, counter-screen for T. cruzi inhibitor project, dose response (AID 651895); format: functional, cell-based

Sequence of Genome polyprotein (Q2Q167 whole entry): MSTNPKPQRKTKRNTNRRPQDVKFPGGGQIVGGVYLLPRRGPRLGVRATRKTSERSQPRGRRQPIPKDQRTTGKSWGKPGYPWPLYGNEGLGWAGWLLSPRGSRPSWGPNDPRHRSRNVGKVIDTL

IC50 (Genome polyprotein): > 49.8 µM (not active)
SMILES: Cc1ccc(OCC(=O)Nc2nnc(S(=O)(=O)N3CCC(C)CC3)s2)cc1

SMILES: COc1cc2c(cc1OC)C(/C=C(\O)c1ccc(NC(C)=O)cc1)=NCC2
EC50 [1]: 3.33 µM (active)
EC50 [2]: < 0.3 µM (active)
EC50 [3]: > 112 µM (not active)

SMILES: C#CC(=O)N(c1cccc(OC)c1)C(C(=O)NC1CCCC1)c1cccs1 (centres undefined)
AC50 [4]: 3.82 µM (active)
IC50 [5]: 28.4 µM (inactive)
AC50 [6]: 1.65 µM (active)
AC50 [7]: 2.53 µM (active)
AC50 [8]: 3.76 µM (active)
AC50 [9]: 0.96 µM (active)
AC50 (INS1): 0.65 µM (active)
AC50 [10]: 2.25 µM (active)
AC50 [11]: 8.46 µM (active)
AC50 [12]: 9.76 µM (active)
AC50 [13]: 3.8 µM (active)
IC50 (Jurkat): 0.25 µM (active)

SMILES: O=C(c1ccc2c3c(cccc13)C(=O)N(O)C2=O)N1CCCCC1
Absolute IC50 (XBP1) (X-box-binding protein 1): 10 µM
IC50 [14]: 11.5 µM (active)
EC50 [15]: 11 µM (active)
EC50 [16]: 13.7 µM (active)

IC50 [17]: 0.113 µM (active)
SMILES: O=C(CCc1ccc(F)cc1)N1CCN(S(=O)(=O)/C=C/c2ccccc2)CC1

IC50 [18]: > 100 µM (not active)
SMILES: CC(NC(N)=O)C12CC3CC(CC(C3)C1)C2 (centres undefined)

SMILES: C[C@H]1CN([C@@H](C)CO)C(=O)c2cccc(NC(=O)c3ccncc3)c2O[C@@H]1CN(C)Cc1ccc(Oc2ccccc2)cc1
IC50 [19]: 8.4 µM (inactive)
IC50 [20]: 5.78 µM (inactive)
IC50 [21]: 0.00066 µM (active)
IC50 [22]: 0.0295 µM (active)
IC50 [23]: 1.5 µM (inactive)
IC50 [24]: 13.2 µM (inactive)
IC50 [25]: 14.4 µM (active)
IC50 [26]: 0.504 µM (inactive)
AC50 [27]: 0.000457 µM (active)
AC50 [28]: 0.08 µM (active)
AC50 [29]: 0.00442 µM (active)
IC50 [30]: 17.1 µM (inactive)

From ChEMBL document CHEMBL1201862, “PubChem BioAssay data set” (2004)
